pIC50: −log10 of the molar value.
What was measured:
TLR8 = target: T1, TLR8 (Homo sapiens, UniProt Q9NR97); assay: HEK/293 TLR8 Cell Assay; format: cell-based; settings: HEK cells, R848 agonist 30 uM final concentration, Steady-Glo readout; read-out: TLR8 potency
T1 construct: expressed in transfected cells; host or cells: HEK/293 reporter cells (NF-kB luciferase)
T1 sequence (Q9NR97 27-1041): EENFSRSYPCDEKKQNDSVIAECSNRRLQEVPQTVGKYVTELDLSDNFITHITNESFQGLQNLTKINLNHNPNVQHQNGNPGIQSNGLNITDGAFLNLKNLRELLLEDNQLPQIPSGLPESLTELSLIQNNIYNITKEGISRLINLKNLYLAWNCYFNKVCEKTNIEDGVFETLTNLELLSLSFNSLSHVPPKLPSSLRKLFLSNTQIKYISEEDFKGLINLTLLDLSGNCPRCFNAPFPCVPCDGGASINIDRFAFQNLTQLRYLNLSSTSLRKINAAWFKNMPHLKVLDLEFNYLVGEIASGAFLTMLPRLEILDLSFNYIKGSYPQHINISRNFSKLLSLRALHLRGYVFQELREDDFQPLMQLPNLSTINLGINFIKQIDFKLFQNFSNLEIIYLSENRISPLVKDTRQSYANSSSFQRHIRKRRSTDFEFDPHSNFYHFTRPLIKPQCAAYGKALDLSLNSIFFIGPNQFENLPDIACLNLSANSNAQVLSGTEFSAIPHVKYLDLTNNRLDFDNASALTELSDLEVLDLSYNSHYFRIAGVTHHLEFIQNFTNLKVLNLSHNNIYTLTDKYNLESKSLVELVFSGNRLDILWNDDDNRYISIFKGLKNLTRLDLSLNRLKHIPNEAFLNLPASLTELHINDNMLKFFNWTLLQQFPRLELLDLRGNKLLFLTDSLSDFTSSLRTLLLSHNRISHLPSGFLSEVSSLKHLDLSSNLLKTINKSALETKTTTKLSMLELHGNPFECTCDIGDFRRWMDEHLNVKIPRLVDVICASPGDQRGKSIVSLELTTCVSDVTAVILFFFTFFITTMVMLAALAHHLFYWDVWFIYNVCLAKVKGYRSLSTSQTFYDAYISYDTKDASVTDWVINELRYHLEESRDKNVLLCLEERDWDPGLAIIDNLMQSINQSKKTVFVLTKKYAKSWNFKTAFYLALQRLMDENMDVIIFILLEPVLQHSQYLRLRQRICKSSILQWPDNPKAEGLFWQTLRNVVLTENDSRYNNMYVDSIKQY
Protocol: (§1) Example 390: HEK/293 TLR8 Cell Assay Into 384 CulturePlates (Corning 3765) was placed 5000 c/w of […] in 30 uL DMEM without Phenol red (gibco #31053-028) and 10% heat inactivated fetal bovine serum, 1% penicillin-streptomycin, and 2 mM L-Glutamine. The cells were incubated for 24 h at 37° C., 10% carbon dioxide and 90% relative humidity. 3 uL of controls, standards, and compounds were dispensed into wells, incubated for 30 min then 3 uL of R848 agonist (30 uM final concentration) was added in 20 mM Hepes. After incubation for 5 hours, they were allowed to stand at room temperature for 15 min. To this was added 10 uL of Steady-Glo substrate reagent and shake assay plate for 5 min at 1500 rpm. The assay plate was allowed to sit for 30 min at room temperature and then the plate was read on EnVision.

TLR7 = target: T2, TLR7 (Homo sapiens, UniProt Q9NYK1); assay: HEK/293 TLR7 Cell Assay; format: cell-based; settings: TLR7/NFKb HEK cells, R848 agonist 10 uM final concentration, Steady-Glo readout; read-out: TLR7 potency
T2 construct: expressed in transfected cells; host or cells: HEK/293 cells carrying TLR7 and an NF-kB luciferase reporter
T2 sequence (Q9NYK1 27-1049): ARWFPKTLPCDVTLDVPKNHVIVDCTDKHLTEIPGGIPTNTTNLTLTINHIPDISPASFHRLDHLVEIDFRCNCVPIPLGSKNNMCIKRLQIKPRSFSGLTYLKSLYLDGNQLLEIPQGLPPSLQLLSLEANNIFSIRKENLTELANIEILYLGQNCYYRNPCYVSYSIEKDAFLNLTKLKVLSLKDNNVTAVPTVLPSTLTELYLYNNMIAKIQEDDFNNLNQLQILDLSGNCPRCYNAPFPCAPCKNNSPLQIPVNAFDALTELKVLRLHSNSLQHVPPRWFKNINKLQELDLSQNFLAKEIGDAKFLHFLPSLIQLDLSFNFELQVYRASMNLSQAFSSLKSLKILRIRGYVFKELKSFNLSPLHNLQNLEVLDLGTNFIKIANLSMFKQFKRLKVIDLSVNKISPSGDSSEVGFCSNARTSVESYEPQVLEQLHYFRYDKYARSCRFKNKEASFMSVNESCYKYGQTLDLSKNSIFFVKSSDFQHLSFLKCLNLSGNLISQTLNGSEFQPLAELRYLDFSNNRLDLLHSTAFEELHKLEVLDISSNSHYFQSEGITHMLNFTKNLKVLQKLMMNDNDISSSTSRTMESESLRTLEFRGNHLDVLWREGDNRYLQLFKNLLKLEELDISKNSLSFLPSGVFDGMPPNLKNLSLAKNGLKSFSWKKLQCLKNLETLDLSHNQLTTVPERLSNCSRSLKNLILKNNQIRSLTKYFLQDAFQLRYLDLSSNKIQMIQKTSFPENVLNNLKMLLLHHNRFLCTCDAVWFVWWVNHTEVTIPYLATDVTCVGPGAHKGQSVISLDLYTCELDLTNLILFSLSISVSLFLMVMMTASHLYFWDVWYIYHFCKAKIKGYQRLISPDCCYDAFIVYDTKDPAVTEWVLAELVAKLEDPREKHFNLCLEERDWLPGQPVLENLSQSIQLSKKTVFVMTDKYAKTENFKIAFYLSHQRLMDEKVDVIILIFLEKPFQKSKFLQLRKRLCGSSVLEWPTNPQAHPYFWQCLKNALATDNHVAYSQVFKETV
Protocol: as §1, with “389:” for “390:”, “TLR7” for “TLR8”, “[…]” for “1%”, “(10” for “(30”

SMILES	pIC50 (TLR8)	pIC50 (TLR7)
C[C@@H](C(=O)N[C@@H]1C[C@H](C(F)(F)F)CN(c2ccc(C#N)c3ncccc23)C1)N1CCN(C)CC1 (single isomer, unassigned) [Example 101]	> 7.12	> 7.12
CC(C(=O)N[C@@H]1C[C@H](C)CN(c2ccc(C#N)c3nccnc23)C1)N1CCC(O)CC1 (single isomer, unassigned) [Example 102]	> 7.12	> 7.12
C[C@H]1C[C@@H](NC(=O)[C@@H](C)N2CCC(O)CC2)CN(c2ccc(C#N)c3nccnc23)C1 (single isomer, unassigned) [Example 103]	> 7.12	< 6.82
CC(C(=O)N[C@@H]1C[C@H](C)CN(c2ccc(C(F)(F)F)c3ncccc23)C1)N1CCC(O)CC1 (single isomer, unassigned) [Example 104]	> 7.12	> 7.12
C[C@H]1C[C@@H](NC(=O)[C@@H](C)N2CCC(O)CC2)CN(c2ccc(C(F)(F)F)c3ncccc23)C1 (single isomer, unassigned) [Example 105]	> 7.12	< 6.82
N#Cc1ccc(N2C[C@H](NC(=O)C3(F)CCNC3)C[C@H](C(F)(F)F)C2)c2cccnc12 (single isomer, unassigned) [Example 163]	> 7.12	> 7.12
N#Cc1ccc(N2C[C@H](NC(=O)[C@@]3(F)CCNC3)C[C@H](C(F)(F)F)C2)c2cccnc12 (single isomer, unassigned) [Example 164]	6.82 to 7.12	6.82 to 7.12
N#Cc1ccc(N2C[C@H](N)CC(F)(F)C2)c2cccnc12 (single isomer, unassigned) [Example 197]	> 7.12	> 7.12
N#Cc1ccc(N2C[C@H](N)CC(F)(F)C2)c2cccnc12 (single isomer, unassigned) [Example 198]	< 6.82	< 6.82
C[C@@H]1CN(c2ccc(C#N)c3nccnc23)C[C@H](CSC[C@H](O)CO)O1 (single isomer, unassigned) [Example 229]	> 7.12	6.82 to 7.12
C[C@@H]1CN(c2ccc(C#N)c3nccnc23)C[C@H](CSC[C@@H](O)CO)O1 (single isomer, unassigned) [Example 230]	> 7.12	> 7.12
C[C@@H]1CN(c2ccc(C#N)c3nccnc23)C[C@H](C(=O)NC[C@H](O)CN(C)C)O1 (single isomer, unassigned) [Example 261]	> 7.12	> 7.12
C[C@@H]1CN(c2ccc(C#N)c3nccnc23)C[C@H](C(=O)NC[C@@H](O)CN(C)C)O1 (single isomer, unassigned) [Example 262]	> 7.12	> 7.12
C[C@@H]1CN(c2ccc(C#N)c3nccnc23)C[C@H](C(=O)NC[C@H]2COCCN2C)O1 (single isomer, unassigned) [Example 263]	> 7.12	> 7.12
C[C@@H]1CN(c2ccc(C#N)c3nccnc23)C[C@H](C(=O)NC[C@@H]2COCCN2C)O1 (single isomer, unassigned) [Example 264]	> 7.12	> 7.12
C[C@@H](O)CNC(=O)[C@H]1CN(c2ccc(C#N)c3nccnc23)C[C@@H](C(F)(F)F)O1 (single isomer, unassigned) [Example 278]	< 6.82	< 6.82
C[C@@H](O)CNC(=O)[C@@H]1CN(c2ccc(C#N)c3nccnc23)C[C@H](C(F)(F)F)O1 (single isomer, unassigned) [Example 279]	< 6.82	6.82 to 7.12
N#Cc1ccc(N2C[C@@H](C(F)(F)F)O[C@@H](C(=O)NC[C@H](O)CO)C2)c2nccnc12 (single isomer, unassigned) [Example 280]	< 6.82	6.82 to 7.12
N#Cc1ccc(N2C[C@@H](C(=O)NC[C@H](O)CO)O[C@@H](C(F)(F)F)C2)c2nccnc12 (single isomer, unassigned) [Example 281]	< 6.82	< 6.82
N#Cc1ccc(N2C[C@@H](C(F)(F)F)O[C@@H](C(=O)NC[C@@H](O)CO)C2)c2nccnc12 (single isomer, unassigned) [Example 282]	< 6.82	6.82 to 7.12
N#Cc1ccc(N2C[C@@H](C(=O)NC[C@@H](O)CO)O[C@@H](C(F)(F)F)C2)c2nccnc12 (single isomer, unassigned) [Example 283]	< 6.82	< 6.82
CC(C)(O)CNC(=O)[C@H]1CN(c2ccc(C#N)c3nccnc23)C[C@@H](C(F)(F)F)O1 (single isomer, unassigned) [Example 284]	6.82 to 7.12	> 7.12
CC(C)(O)CNC(=O)[C@@H]1CN(c2ccc(C#N)c3nccnc23)C[C@H](C(F)(F)F)O1 (single isomer, unassigned) [Example 285]	< 6.82	< 6.82
C[C@H](O)CNC(=O)[C@H]1CN(c2ccc(C#N)c3nccnc23)C[C@@H](C(F)(F)F)O1 (single isomer, unassigned) [Example 286]	< 6.82	< 6.82
C[C@H](O)CNC(=O)[C@@H]1CN(c2ccc(C#N)c3nccnc23)C[C@H](C(F)(F)F)O1 (single isomer, unassigned) [Example 287]	6.82 to 7.12	6.82 to 7.12
C[C@@H]1CN(c2ccc(C#N)c3nccnc23)C[C@H](C(=O)NC[C@H]2COCCN2)O1 (single isomer, unassigned) [Example 296]	> 7.12	> 7.12
C[C@@H]1CN(c2ccc(C#N)c3nccnc23)C[C@H](C(=O)NC[C@@H]2COCCN2)O1 (single isomer, unassigned) [Example 297]	> 7.12	> 7.12
